Data reported in patent US20090111781A1, “Use of Cymipristone Type Compounds in Aids Treatment” (SHANGHAI THREE-ALLIANCE BIOTECHNOLOGIES CO., LTD., priority 2005, published 2009).
Where “and” joins values, the source holds several entries; their conditions need not be identical. Identical values can stand only once.

What was measured:
[1] = Cytotoxicity in MT-4 cell culture by MTT staining method; type: cell-based, human; conditions: human, MT-4 cells infected with HIV-1 IIIB; MT-4 cell culture, MTT staining; read-out: Cytotoxicity TC50, MTT
Experimental: (§1) Set virus TCID50 determination group and cell control group. Each concentration is duplicated in two pore. Incubate under 37° C., 5% CO2 and saturated humidity in an incubator. Add MTT into each pore of cell culture plate pipetted supernatant liquid to stain, continue to incubate for 4 hours, add decolorizing liquid, determine OD value at 570 nm wavelength by enzyme-linked apparatus, and [NT]50 and TC0 as above. […] [formula]

MT-4 cells = assay: as above; type: cell-based, human
Experimental: as §1

estrogen receptor ERβ = estrogen receptor ERβ (Homo sapiens, UniProt Q92731); assay: Binding activity on human nuclear receptor ERβ; conditions: mean ± SD, n = 4
Sequence of estrogen receptor ERβ (Q92731 whole entry): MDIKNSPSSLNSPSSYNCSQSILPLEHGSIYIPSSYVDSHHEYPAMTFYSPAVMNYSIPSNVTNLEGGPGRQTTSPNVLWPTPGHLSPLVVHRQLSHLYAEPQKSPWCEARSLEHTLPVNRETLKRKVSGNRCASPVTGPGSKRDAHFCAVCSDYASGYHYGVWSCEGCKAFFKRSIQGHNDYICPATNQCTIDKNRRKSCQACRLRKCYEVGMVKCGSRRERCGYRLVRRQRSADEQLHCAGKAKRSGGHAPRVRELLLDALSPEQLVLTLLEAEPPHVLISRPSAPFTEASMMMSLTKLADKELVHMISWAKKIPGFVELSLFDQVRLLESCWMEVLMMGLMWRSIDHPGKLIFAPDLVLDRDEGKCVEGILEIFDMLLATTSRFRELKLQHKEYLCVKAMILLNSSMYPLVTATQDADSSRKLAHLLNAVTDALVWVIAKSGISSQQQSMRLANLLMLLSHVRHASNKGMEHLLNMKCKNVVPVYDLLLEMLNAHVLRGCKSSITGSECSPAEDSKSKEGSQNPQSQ
Experimental: (§2) Buffer solution is composed of 25 mM NaPO4, 20 mM NaMoO4, 10 mM KF and 10% glycerol (pH=7.3) and stored under 4° C. Stock solution is prepared with CHAPS and DTT and stored under −20° C. […] Add 2.5 μl/hole into 96-pore plate. Take out appropriate amount of buffer solution reserve into solution to make the final concentration of CHAPS and DDT to become 0.25 mM and 2 mM respectively. Add protease inhibitors (aprotinin and leupeptin) to make its final concentration to become 1 μg/μl, and place in an ice bath. After adding human nuclear receptor GR (1:8), PR (1:100), ER (1:2000), AR (1:200) and MR (1:40) into the reaction system respectively, adequately mix suitable quantity of [^3H]-dexamethasone, [^3H]-progesterone, [^3H]-estradiol and [^3H]-DHT (from Amersham), rapidly add into 96-pore plate (100 μl/pore) and incubate overnight under 4° C. On the next day, add 25 μl of hydroxyapatite suspension into each pore and mix with shaking. After incubating for 10 min, separate by centrifuge for 3 min at 2500 rpm. The precipitate is washed with 100 μl of buffer solution and separated by centrifuge twice. Add 150 μl of scintillation solution (from Perkin Elmer) into each pore, mix with shaking and count by MicroBeta counter.

androgen receptor (AR) = target: T1, androgen receptor (AR) (Homo sapiens, UniProt P10275); assay: Binding activity on human nuclear receptor AR; conditions: mean ± SD, n = 4
T1 sequence (P10275 1-920): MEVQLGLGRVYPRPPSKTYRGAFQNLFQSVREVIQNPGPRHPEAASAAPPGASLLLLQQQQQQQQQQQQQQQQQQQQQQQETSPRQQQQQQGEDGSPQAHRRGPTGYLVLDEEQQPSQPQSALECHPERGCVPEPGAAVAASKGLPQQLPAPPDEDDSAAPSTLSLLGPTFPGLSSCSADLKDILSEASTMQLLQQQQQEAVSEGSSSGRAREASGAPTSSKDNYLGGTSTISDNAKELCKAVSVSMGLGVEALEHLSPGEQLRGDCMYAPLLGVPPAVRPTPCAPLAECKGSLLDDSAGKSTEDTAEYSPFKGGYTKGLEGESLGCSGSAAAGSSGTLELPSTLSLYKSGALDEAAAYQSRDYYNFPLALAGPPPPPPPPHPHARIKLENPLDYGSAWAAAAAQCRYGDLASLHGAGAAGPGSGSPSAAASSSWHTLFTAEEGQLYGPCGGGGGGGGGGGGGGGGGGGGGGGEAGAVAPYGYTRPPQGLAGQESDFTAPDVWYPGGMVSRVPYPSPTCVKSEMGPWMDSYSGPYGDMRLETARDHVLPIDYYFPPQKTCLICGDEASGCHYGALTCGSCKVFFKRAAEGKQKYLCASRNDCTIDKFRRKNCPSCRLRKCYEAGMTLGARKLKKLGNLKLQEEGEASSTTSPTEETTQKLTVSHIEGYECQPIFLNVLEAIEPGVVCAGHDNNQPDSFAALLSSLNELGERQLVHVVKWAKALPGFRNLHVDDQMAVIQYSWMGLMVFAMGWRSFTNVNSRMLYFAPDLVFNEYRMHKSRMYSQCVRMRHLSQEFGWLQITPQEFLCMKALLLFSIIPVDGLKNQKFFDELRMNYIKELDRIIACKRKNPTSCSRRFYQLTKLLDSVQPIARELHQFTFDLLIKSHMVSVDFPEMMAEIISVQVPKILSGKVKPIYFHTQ
Experimental: as §2

HIV-1 IIIB P24 antigen = assay: microbe, parasite or virus in culture; type: cell-based; conditions: for Selection index (SI): MT-4
Experimental: (1) Inoculate MT4 cells into 96-pore cell culture plate, 1×10^5 cells/ml, infect with HIV-1-IIIB virus strain of about 100TCID50, and add cymipristone solution at the same time, its concentration is below 100 μg/ml, triply diluted to 8 concentrations. Set virus TCID50 determination group and cell control group. Each concentration is duplicated in two pore. Incubate under 37° C., 5% CO2 and saturated humidity in an incubator.
Daily observe the cytopathy in above culture plate by microscope, record the degree of cytopathy with routine method, and calculate the 50% toxic concentration (TC50) and maximum nontoxic concentration (TC0) of drug according to Reed & Muench method. (3) Determination on HIV-1 P24 Antigen with Supernatant Liquid Pipetted from Cell Culture Plate Added Drug After 4 days (96 hours), pipette out the supernatant liquid from cell culture added drug and freeze HIV-1 P24 antigen used for determination.
Take the supernatant liquid on the fourth day, combine the liquid from two pore, and dilute by 1:100, Determine the HIV-1 P24 antigen titer (OD value) by ELISA method according to the instruction of HIV-1 P24 antigen reagent kit. […] At the same time, determine the 50% infection concentration of HIV-1/IIIB virus strain in MT-4 cells and virus infection quantity (TCID50).
(1) Calculation of TC50, IC50 and SI of Drug in Cell Culture According to Reed & Muench Method

[2] = Human immunodeficiency virus 1, IIIB, MT4, read-out: Inhibition rate on HIV-1 P24 antigen

SMILES: CC#C[C@]1(O)CC[C@H]2[C@@H]3CCC4=CC(=O)CCC4=C3[C@@H](c3ccc(N(C)C4CCCCC4)cc3)C[C@@]21C [Cymipristone, 11β-[4-(N-methyl-N-cyclohexylamino)phenyl]-17α-(1-propynyl)-17β-hydroxyl-4,9-estradiene-3-one]
- CC50 at 96 h [1]: 60900 nM
- Cytotoxicity TC50, MTT (MT-4 cells; MT-4 cell culture, MTT staining): 30.26 µg/mL
- Toxicity on cultured human T-lymphocyte MT-4 (in words) (MT-4 cells; conclusion): no significant toxicity
- IC50 (estrogen receptor ERβ): 278.7 ± 0.63 nM
- IC50 (androgen receptor (AR)): 69.6 ± 15.4 nM
- IC50 (HIV-1 IIIB P24 antigen; Human immunodeficiency virus 1, IIIB, MT4, read-out: IC50 on HIV-1 IIIB P24 antigen): 1.3 µg/mL and 2.62 µM
- inhibition at 0.05 µg/mL (HIV-1 IIIB P24 antigen; [2]): 14%
- inhibition at 0.14 µg/mL (HIV-1 IIIB P24 antigen; [2]): 17%
- inhibition at 0.41 µg/mL (HIV-1 IIIB P24 antigen; [2]): 13%
- inhibition at 1.23 µg/mL (HIV-1 IIIB P24 antigen; [2]): 29%
- inhibition at 3.7 µg/mL (HIV-1 IIIB P24 antigen; [2]): 93%
- Selection index (SI) (HIV-1 IIIB P24 antigen; SI=TC50/IC50, CPE cytotoxicity): 5.93
- Selection index (SI) (HIV-1 IIIB P24 antigen; SI=TC50/IC50, MTT cytotoxicity): 23.28
- Effect on HIV-1 P24 antigen formation in MT-4 cell culture (in words) (HIV-1 IIIB P24 antigen; conclusion): significant inhibitory effect
